Data reported in paper PMC2639596, “Antimicrobial peptides effectively kill a broad spectrum of Listeria monocytogenes and Staphylococcus aureus strains independently of origin, sub-type, or virulence factor expression” (BMC Microbiology, 2008).

How the values were obtained:
[1] = system: Listeria monocytogenes; experiment: MIC of host defense peptides in liquid medium (microbroth dilution); assay type: cell-based; details: 18–24 h, 37°C
Procedure: (§1) Experiments were carried out with a collection of 25 Listeria monocytogenes strains (Table 1) and 16 Staphylococcus aureus strains (Table 2) representing different lineages and serotypes (L. monocytogenes), spa types (S. aureus), and origins (food processing environment, food products, and human clinical isolates). Six L. monocytogenes strains were mutants of the EGD strain and were mutated in genes known to be involved in stress tolerance. The S. aureus collection comprised two deletion mutants, strains Sa113/ΔmprF [8] and Sa113/ΔdltA [7], known to be more sensitive to host defense peptides. Two of the S. aureus strains could not immediately be assigned to an existing spa type and we are in the process of acquiring the additional information that is needed to assign a new spa type to them. The strains were obtained from The National Institute of Aquatic Resources and The National Food Institute, Technical University of Denmark, Faculty of Life Sciences, University of Copenhagen, Denmark, Statens Serum Institut, Denmark, University of Würzburg, Germany and Campden Food and Drink Association, United Kingdom. Stock cultures were stored at -80°C in 4% (w/V) glycerol, 0.5% (w/V) glucose, and 2.0% (w/V) skimmed milk powder. The bacteria were grown in Brain Heart Infusion (BHI) broth (Oxoid, CM0225), Tryptone Soy Broth (TSB) (Oxoid, CM129), and cation-adjusted Mueller-Hinton II Broth (MHB) (Becton Dickinson, 212322) adjusted to pH 7.4. To avoid unspecific binding of host defense peptides to plastic ware and agar, all MIC determinations were carried out using polypropylene plastic ware and radial diffusion assays were carried out in MHB supplemented with 1% agarose (Invitrogen, 15510-027) as gelling agent.
(§2) Protamine was purchased from Sigma (P4020-5G). Plectasin, novicidin, and novispirin G10 were supplied by Novozymes A/S. Recombinant HBD-3 was purchased from PeproTech (300-52).
(§3) The strain collection was tested for sensitivity to protamine, plectasin, novicidin, and novispirin G10 by determining their minimal inhibitory concentration (MIC) using a microbroth dilution method. Colonies from a BHI agar plate incubated overnight were suspended in MHB pH 7.4 to a turbidity of 0.11–0.12 at 546 nm (approx. 1.0 × 10^8 CFU/ml) and diluted in MHB to a concentration of 5.0 × 10^5 CFU/ml. 90 μl of bacterial suspension was incubated with 10 μl of peptide solution in polypropylene 96-well plates (Nunc, 442587) for 18–24 h at 37°C. The peptide solutions were made fresh on the day of assay and diluted two-fold. The range of concentrations assayed were 0.031–32 μg/ml for novicidin, 0.125–128 μg/ml for protamine and novispirin G10, and 0.25–256 μg/ml for plectasin. MIC was the lowest peptide concentration at which visual growth was inhibited. The minimum bactericidal concentration (MBC) values were determined by plating l0 μl samples from wells with no visible growth onto BHI agar plates. MBC was the lowest concentration of each peptide of which 99.9% reduction of the initial inoculum was observed.

[2] = system: Staphylococcus aureus; experiment: as above; assay type: cell-based; details: 18–24 h, 37°C
Procedure: as §1, §2, §3

[3] = system: L. monocytogenes and S. aureus; experiment: Minimum bactericidal concentration (MBC), plating from MIC wells; assay type: cell-based, Listeria monocytogenes, Staphylococcus aureus; details: 99.9% reduction of initial inoculum; 10 μl from wells with no visible growth plated on BHI agar
Procedure: as §3

Substance novispirin G10 has an MIC ([1]; strain 2275 (EGD dps del), MHB pH 7.4, 5.0 × 10^5 CFU/ml) of 64 µg/mL, an MIC ([1]; strain 2307 (EGD resD del), MHB pH 7.4, 5.0 × 10^5 CFU/ml) of 32 µg/mL and an MIC ([1]; strain 2315 (EGD sigB del), MHB pH 7.4, 5.0 × 10^5 CFU/ml) of 64 µg/mL. The MIC ([1]; strain 2317 (EGD prfA del), MHB pH 7.4, 5.0 × 10^5 CFU/ml) was 64 µg/mL, the MIC ([1]; strain 2374 (EGD perR ins), MHB pH 7.4, 5.0 × 10^5 CFU/ml) was 32 µg/mL and the MIC ([1]; strain 2375 (EGD perR del), MHB pH 7.4, 5.0 × 10^5 CFU/ml) was 32 µg/mL. It also gave an MIC ([1]; strain 4239, MHB pH 7.4, 5.0 × 10^5 CFU/ml) of 64 µg/mL, an MIC ([1]; strain 4446, MHB pH 7.4, 5.0 × 10^5 CFU/ml) of 64 µg/mL and an MIC ([1]; strain 4459, MHB pH 7.4, 5.0 × 10^5 CFU/ml) of 32 µg/mL. For the same substance, the MIC ([1]; strain 4666, MHB pH 7.4, 5.0 × 10^5 CFU/ml) was 64 µg/mL, the MIC ([1]; strain 6895, MHB pH 7.4, 5.0 × 10^5 CFU/ml) was 96 µg/mL and the MIC ([1]; strain 7291, MHB pH 7.4, 5.0 × 10^5 CFU/ml) was 128 µg/mL. For the same substance, the MIC ([1]; strain 7418, MHB pH 7.4, 5.0 × 10^5 CFU/ml) was 64 µg/mL, the MIC ([1]; strain EGD (wildtype), MHB pH 7.4, 5.0 × 10^5 CFU/ml) was 64 µg/mL and the MIC ([1]; strain H13-1, MHB pH 7.4, 5.0 × 10^5 CFU/ml) was 64 µg/mL. For the same substance, the MIC ([1]; strain LO28 (wildtype), MHB pH 7.4, 5.0 × 10^5 CFU/ml) was 16 µg/mL, the MIC ([1]; strain La22, MHB pH 7.4, 5.0 × 10^5 CFU/ml) was 64 µg/mL and the MIC ([1]; strain La111, MHB pH 7.4, 5.0 × 10^5 CFU/ml) was 32 µg/mL. For the same substance, the MIC ([1]; strain M103-1, MHB pH 7.4, 5.0 × 10^5 CFU/ml) was 64 µg/mL, the MIC ([1]; strain N53-1, MHB pH 7.4, 5.0 × 10^5 CFU/ml) was 32 µg/mL and the MIC ([1]; strain No40-1, MHB pH 7.4, 5.0 × 10^5 CFU/ml) was 64 µg/mL. For the same substance, the MIC ([1]; strain O57, MHB pH 7.4, 5.0 × 10^5 CFU/ml) was 128 µg/mL, the MIC ([1]; strain R479a, MHB pH 7.4, 5.0 × 10^5 CFU/ml) was 64 µg/mL and the MIC ([1]; strain Scott A, MHB pH 7.4, 5.0 × 10^5 CFU/ml) was 32 µg/mL. It also gave an MIC ([1]; strain V518a, MHB pH 7.4, 5.0 × 10^5 CFU/ml) of 64 µg/mL, an MIC ([2]; strain 796, MHB pH 7.4, 5.0 × 10^5 CFU/ml) of 128 µg/mL and an MIC ([2]; strain 2148-jvi, MHB pH 7.4, 5.0 × 10^5 CFU/ml) of 64 µg/mL. It also gave an MIC ([2]; strain 8325-4 (wildtype), MHB pH 7.4, 5.0 × 10^5 CFU/ml) of 128 µg/mL, an MIC ([2]; strain 15033, MHB pH 7.4, 5.0 × 10^5 CFU/ml) of 128 µg/mL and an MIC ([2]; strain B29997, MHB pH 7.4, 5.0 × 10^5 CFU/ml) of 128 µg/mL. For the same substance, the MIC ([2]; strain B31369, MHB pH 7.4, 5.0 × 10^5 CFU/ml) was 256 µg/mL, the MIC ([2]; strain J15033, MHB pH 7.4, 5.0 × 10^5 CFU/ml) was 128 µg/mL and the MIC ([2]; strain K3-B2, MHB pH 7.4, 5.0 × 10^5 CFU/ml) was 128 µg/mL. For the same substance, the MIC ([2]; strain KES 439, MHB pH 7.4, 5.0 × 10^5 CFU/ml) was 128 µg/mL, the MIC ([2]; strain KES 626, MHB pH 7.4, 5.0 × 10^5 CFU/ml) was 64 µg/mL and the MIC ([2]; strain KES 735, MHB pH 7.4, 5.0 × 10^5 CFU/ml) was 128 µg/mL. It also gave an MIC ([2]; strain KES 855, MHB pH 7.4, 5.0 × 10^5 CFU/ml) of 64 µg/mL, an MIC ([2]; strain Sa113 (wildtype), MHB pH 7.4, 5.0 × 10^5 CFU/ml) of 128 µg/mL and an MIC ([2]; strain ΔdltA (Sa113 dltA ins), MHB pH 7.4, 5.0 × 10^5 CFU/ml) of 2 µg/mL. The MIC ([2]; strain ΔmprF (Sa113 mprF del), MHB pH 7.4, 5.0 × 10^5 CFU/ml) was 8 µg/mL and the “minimum bactericidal concentrations (MBC)” value [3] was “identical to the MICs”.
